Data as given in patent US10137166B2, “Compositions and methods for affecting movement of contaminants, bodily fluids or other entities, and/or affecting other physiological conditions” (Massachusetts Institute of Technology, priority 2006, dated 2018).

How the values were obtained:
[1] = test system: liver (lobus sinister lateralis); experiment: Liver, rostral to caudal cut of the lobus sinister lateralis (relatively low pressure vessel); hemostasis; type: in vivo, adult rat; conditions: 1% peptide solution, topically and in the cut
Source text: Profuse bleeding ensued. A 1% peptide solution (RADA16-1) was applied to the cut and in its vicinity using a 27 gauge needle and 4 cc syringe. All bleeding stopped within 10 seconds. A series of pictures was obtained. […] After treating the site with 1% peptide solution (applied topically and in the cut), all bleeding stopped within 10 seconds. A clear area was observed between the two halves of the lobus sinister lateralis. This procedure was repeated several times with the same result.

femoral artery = experiment: Femoral artery transection; hemostasis; type: in vivo, adult rats
Procedure: The sciatic nerve and the adjacent femoral artery were exposed in adult rats, and the femoral artery was transected. Twelve rats were treated by application of 20 μl of a 1% solution of RADA 16-I peptide to the site of transection using a glass pipette attached to a syringe body, while controls were treated by applying cold saline to the site of transection. […] The saline control cases continued to bleed until the experiment was terminated at 110 seconds. […] A series of pictures was taken in an adult rat in which the femoral artery was transected. In the picture taken first, the sciatic nerve and the femoral artery are exposed. […] The assembled material can be suctioned off the site easily if desired.
In the saline controls, hemostasis was never reached.

skin wounds = experiment: 4 mm punch biopsy healing test of skin and subcutaneous tissue; type: in vivo; conditions: single application
Procedure: The regions from which the biopsies were taken were either treated by a single application of self-assembling peptide (RADA16-I) solution or were left untreated. The wounds were left unbandaged. A series of pictures of a 4 mm punch biopsy healing test in which injured animals were treated with the self assembling peptide and compared to matching cases with no treatment illustrates the results. The wounds were photographed on day 0, day 1, day 4, and day 7. […] Treatment with the peptide appeared to speed healing by as much as 5 days in some cases.

[2] = test system: branch of the superior sagittal sinus in the brains of rats and hamsters; experiment: Transection of a branch of the superior sagittal sinus in the brain; hemostasis assessed visually from time-stamped video; type: in vivo
Procedure: Animals were anesthetized with an i.p. injection of ketamine (80 mg/kg) and xylazine (8 mg/kg). All surgical procedures were conducted under an operating microscope. Twenty-two animals, including 10 adult hamsters and 12 young adult female Spraque-Dawley rats (200-250 g), were treated with either iced saline or 20 μl of a 1% peptide solution at the site of the sinus branch transection. The material was prepared by dissolving RADA 16-1 (n-RADARADARADARADA-c; SEQ ID NO: 1) peptide in sterile water, and the peptide-containing solution was applied to the injured tissue with a 31 gauge needle attached to a 2 cc syringe.
The experiment was videotaped with a time stamp and was replayed one frame at a time to evaluate the length of time required for the peptide solution to form a gel, which effectively impeded bleeding. Hemostasis was assessed visually, and “complete hemostasis” was defined as the complete lack of movement of blood from the wound site.
Durations were measured from the start of application of peptide solution to the completion of hemostasis after transection of the veins leading to the sinus in the brains of adult rats. […] In the saline controls, cessation of bleeding was never achieved. The saline control experiment was terminated at the same time point in order to prevent the animals from bleeding to death.
A total of 22 rats and 64 hamsters have been subjected to experiments in which peptide-containing solutions effectively achieved hemostasis within 10 seconds following application to a site intracranial bleeding.

[3] = test system: liver and a major branch of the portal vein; experiment: Liver, transverse cut transecting a major branch of the portal vein (higher pressure); hemostasis; type: in vivo
Procedure: A series of pictures illustrate the experiment. […] The cut was treated with 4% peptide solution applied topically and in the cut. All bleeding stopped within 10 seconds. […] Thus, application of 4% peptide solution brings about complete hemostasis in a high pressure bleeding environment in less than 10 seconds. […] This procedure was repeated several times with the same result.

spinotrapezius muscles = experiment: Muscle trauma, deep cut in the spinotrapezius muscles on the back; hemostasis; type: in vivo, rat; conditions: 1% peptide solution applied in the cut
Source text: The spinotrapezius muscles on the back of the rats were exposed and a deep cut was made in the muscle, after which 1% peptide solution (RADA16-I) was applied in the cut. Within 10 seconds, all bleeding had stopped. With the application of iced saline alone, control animals continued to bleed after 20 seconds.

superior sagittal sinus = experiment: Complete transection of the superior sagittal sinus; hemostasis; type: in vivo; conditions: control animals still bleeding after 20 seconds
Source text: A higher concentration of peptide (e.g., approximately 3%-4%) was used in the latter experiment in order to achieve hemostasis. The three saline control cases continued to bleed after 20 seconds.

[4] = test system: liver (lobus sinistras laterialis); experiment: Liver, removal of 1/4 of the lobe, topical treatment of the margin; hemostasis; type: in vivo
Procedure: In other experiments ¼ of the lobe in the lower right quadrant of the lobus sinistras laterialis was removed, and the margin was treated with a topical application of 2% peptide (RADA16-I) to the site of injury. Bleeding stopped in less than 10 seconds.

muscle of the hind limb = experiment: Hind limb muscle wounds (porteocaudalis and musculus tibialis cranialis); hemostasis; type: in vivo
Source text: However when an artery or vein was transected 2% or higher material was needed to bring about hemostasis. With the application of iced saline alone, control animals continued to bleed after 20 seconds.

intestine (duodenum) = experiment: Perforated intestine at the level of the duodenum; leakage of gastric fluid; type: in vivo, adult rat
Procedure: An additional volume of 2% peptide solution was injected into the duodenum at the level of the injury. […] In the control cut at the level of the duodenum, the wall of the intestine inverted and gastric fluids continued to leak from the site of injury when left untreated.

[5] = control cut treated 15 minutes after the injury

Substance: n-RADARADARADARADA-c [RADA16-I]
- time until all bleeding stopped [1]: ≤ 10 s
- time to hemostasis (femoral artery; 20 μl of a 1% solution, all treated cases): less than 10 seconds
- hemostasis in picture series (femoral artery; adult rat, after about five seconds): complete hemostasis was observed
- hemostasis after replacement of cold saline with the peptide solution (femoral artery; control animals): almost immediate achievement of complete hemostasis
- time complete hemostasis was maintained (femoral artery; duration of the test): ≥ 1 h
- wound healing versus untreated (skin wounds; contraction of the wound site as early as day 1): healed much faster
- speeding of healing versus no treatment (skin wounds; some cases): ≤ 5 days
- time to complete hemostasis after application of the peptide solution ([2]; 20 μl of a 1% peptide solution, rats and hamsters, all cases): ≤ 10 s
- hemostasis in picture series ([2]; adult rat, five seconds after the peptide solution was applied): Complete hemostasis was achieved
- average duration from start of application to completion of hemostasis ([2]; adult rats, transection of the veins leading to the sinus): 8.3 s
- hemostasis ([3]; 1% solution): partial cessation of bleeding
- hemostasis ([3]; 2% or 3% peptide solution): complete hemostasis was also achieved
- time until all bleeding stopped ([3]; 4% peptide solution, topically and in the cut): ≤ 10 s
- bleeding at later time ([3]; 4% peptide solution, ten minutes later, after physical stress): still no bleeding
- hemostasis after excess peptide structure was wiped away ([3]; 30 seconds after treatment): hemostasis was maintained
- time until all bleeding had stopped (spinotrapezius muscles): ≤ 10 s
- hemostasis after iced saline was removed and peptide solution applied (superior sagittal sinus): complete hemostasis almost immediately
- hemostasis at the margin after the peptide was removed ([4]; 2% peptide, removed one minute later): complete hemostasis was achieved
- time until bleeding stopped ([4]; topical 2% peptide): less than 10 seconds
- hemostasis in limb wounds (muscle of the hind limb; between 1% to 100% peptide): hemostasis was achieved in all cases
- material concentration needed to bring about hemostasis (muscle of the hind limb; when an artery or vein was transected): ≥ 2%
- leakage of gastric fluids after treatment of the site (intestine (duodenum); 2% peptide solution): all leakage of gastric fluids from the intestine stopped
- leakage after additional volume injected into the duodenum (intestine (duodenum); 2% peptide solution, duration of the procedure): prevented all leakage from the intestine for one hour
- intestinal wall inversion (intestine (duodenum); [5]): stopped the progression of the intestinal wall inversion
- leakage when treated after the injury (intestine (duodenum); [5]): stopped all leakage from this injury site
